In US12534477B2, “Compound having KHK inhibitory effect” (HANGZHOU ZHONGMEIHUADONG PHARMACEUTICAL CO., LTD., priority 2019, dated 2026):
Read-outs that look alike come from different tables or passages of the source.

Experiments:
[1] = target: Recombinant Human Ketohexokinase (KHK) (Homo sapiens (Human), UniProt P50053); experiment: Ketohexokinase assay (KHK assay), ADP-Glo; assay type: biochemical
Protocol: • 1. EnVision multilabel reader, Perkin Elmer; • 2. OptiPlate 384-well microplate, Perkin Elmer, Cat. No. 6007290; • 3. Recombinant Human Ketohexokinase (KHK), R&D Cat. No.: 8177-HK-020, Lot No.: DDFK0117092; • 4. Fructose (D(−)-Fructose), SCR Cat. No.: 36003034; and • 5. ADP-Glo kinase assay kit, Promega_Cat. No.: V9101.
1. preparation of Dilution Buffer containing 50 mM hydroxyethylpiperazine […] (Hepes), 140 mM KCl, 3.5 mM MgCl2, and 0.01% bovine serum albumin (BSA), pH 7.4.
2. A working solution of ketohexokinase at 2.5 times concentration was prepared with Dilution Buffer, with 50 nM ketohexokinase and 12.5 mM fructose.
3. A working solution of adenosine triphosphate (ATP) at 2.5 times concentration was prepared with Dilution Buffer, with a concentration of 250 μM.
4. Each compound was diluted starting at a concentration of 500 μM, 3-fold diluted for 9 concentration points. The final concentration of the compound in the reaction system started from 10 μM and the final concentration of dimethyl sulfoxide (DMSO) was 2%.
5. A 96-well plate was prepared as a reaction plate, and was incubated at room temperature for 5 min after adding 6 μL ketohexokinase working solution at 2.5 times concentration to each well and further adding 3 μL compound working solution to each well.
6. The first well of each row was a positive control for a compound, i.e. the same volume of the buffer was added to replace the compound and ketohexokinase. The last well was a negative control for the compound, i.e. the same volume of Dilution Buffer was added instead of the compound.
7. 6 μL ATP working solution was added to each well in a 96-well reaction plate to initiate the kinase reaction. The kinase reaction was incubated in a constant temperature heater at 28° C. for 1 h.
1. A384 plate was prepared as a detection plate, and firstly 5 μL ADP-Glo reagent was added.
2. 5 μL kinase reaction mixture from the reaction plate was added to each well and incubated in a constant temperature heater at 28° C. for 30 min.
3. 10 μL kinase detection reagent was added to each well and incubated in a constant temperature heater at 28° C. for 30 min.
4. The detection plate was placed in an EnVision multilabel reader to read the chemiluminescent signal.

[2] = target: CYP2C9 (Homo sapiens (Human), UniProt P11712); experiment: Inhibitory activity on human liver microsomal cytochrome P450 isozymes; assay type: in vitro ADME; settings: human liver microsomes
CYP2C9, sequence (P11712 whole entry): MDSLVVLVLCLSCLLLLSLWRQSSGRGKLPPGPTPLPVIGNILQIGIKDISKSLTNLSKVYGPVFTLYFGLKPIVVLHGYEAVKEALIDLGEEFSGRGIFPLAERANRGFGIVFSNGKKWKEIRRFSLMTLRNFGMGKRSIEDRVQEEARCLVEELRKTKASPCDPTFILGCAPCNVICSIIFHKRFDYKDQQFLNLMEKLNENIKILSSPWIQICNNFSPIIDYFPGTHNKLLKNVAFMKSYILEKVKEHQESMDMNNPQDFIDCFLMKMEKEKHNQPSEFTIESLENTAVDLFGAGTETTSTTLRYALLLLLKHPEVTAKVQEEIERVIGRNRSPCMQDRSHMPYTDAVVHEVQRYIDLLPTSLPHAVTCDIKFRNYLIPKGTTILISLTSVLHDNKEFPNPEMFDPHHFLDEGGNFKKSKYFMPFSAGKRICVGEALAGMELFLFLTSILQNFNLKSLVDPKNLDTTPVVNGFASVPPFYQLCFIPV
Protocol: (§1) The inhibitory effect of test compounds on the activity of human hepatic microsomal cytochrome P450 isozymes (CYP1A2, CYP2C9, CYP2C19, CYP2D6 and CYP3A4) was determined.
(§2) First, the test compound (10 mM) was diluted in gradient to prepare working solutions (100×final concentration) with working solution concentrations: 5, 1.5, 0.5, 0.15, 0.05, 0.015, 0.005 mM, respectively, and at the same time, working solutions of each positive inhibitor of P450 isozymes (CYP1A2, CYP2C9, CYP2C19, CYP2D6 and CYP3A4) and its specific substrate mixture were prepared. Human liver microsomes frozen in a −80° C. refrigerator were thawed on ice, and diluted with PB (phosphate buffer) after all the human liver microsomes were dissolved, to prepare a working solution at a certain concentration (0.253 mg/mL). 20 μl substrate mixture was added to the reaction plate (20 μL PB was added to the Blank wells) while 158 μL human liver microsome working solution was added to the reaction plate which was placed on ice for later use. At this time, 2 μL of each concentration of the test compound (N=1) and the specific inhibitor (N=2) were added to the corresponding wells, and the corresponding organic solvents were added to the groups without inhibitors (the test compound or the positive inhibitor) as control samples (1:1 DMSO:MeOH for the test compound control sample, and 1:9 DMSO:MeOH for the positive control sample). After pre-incubation in 37° C. water bath for 10 min, 20 μL coenzyme factor (NADPH) solution was added to the reaction plate, and incubated in 37° C. water bath for 10 min. 400 μL cold acetonitrile solution (200 ng/mL Tolbutamide and Labetalol as the internal standard) was added to stop the reaction. The reaction plate was placed on a shaker and shaken for 10 min. The mixture was centrifuged at 4,000 rpm for 20 min, and 200 μl the supernatant was added to 100 μL water for sample dilution. Finally, the plate was sealed, shaken, mixed well and detected by LC/MS/MS.

[3] = target: CYP2D6 (Homo sapiens (Human), UniProt P10635); experiment: as above; assay type: in vitro ADME; settings: human liver microsomes
CYP2D6, sequence (P10635 whole entry): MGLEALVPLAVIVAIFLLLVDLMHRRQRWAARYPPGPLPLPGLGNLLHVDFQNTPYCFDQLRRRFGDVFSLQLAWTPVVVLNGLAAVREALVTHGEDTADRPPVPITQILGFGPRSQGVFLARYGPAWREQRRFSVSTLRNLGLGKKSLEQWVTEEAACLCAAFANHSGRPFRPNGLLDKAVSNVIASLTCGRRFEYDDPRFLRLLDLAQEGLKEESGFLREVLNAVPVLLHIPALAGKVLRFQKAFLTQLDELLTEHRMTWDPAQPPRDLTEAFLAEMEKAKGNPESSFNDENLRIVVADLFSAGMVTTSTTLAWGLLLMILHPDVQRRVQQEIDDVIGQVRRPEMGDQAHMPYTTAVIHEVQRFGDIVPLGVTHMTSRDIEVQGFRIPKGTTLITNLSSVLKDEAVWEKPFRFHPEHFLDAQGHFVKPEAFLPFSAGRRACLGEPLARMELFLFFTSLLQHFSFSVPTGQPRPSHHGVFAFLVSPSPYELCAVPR
Protocol: as §1, §2

[4] = target: CYP3A4 (Homo sapiens (Human), UniProt P08684); experiment: as above; assay type: in vitro ADME; settings: human liver microsomes
CYP3A4, sequence (P08684 whole entry): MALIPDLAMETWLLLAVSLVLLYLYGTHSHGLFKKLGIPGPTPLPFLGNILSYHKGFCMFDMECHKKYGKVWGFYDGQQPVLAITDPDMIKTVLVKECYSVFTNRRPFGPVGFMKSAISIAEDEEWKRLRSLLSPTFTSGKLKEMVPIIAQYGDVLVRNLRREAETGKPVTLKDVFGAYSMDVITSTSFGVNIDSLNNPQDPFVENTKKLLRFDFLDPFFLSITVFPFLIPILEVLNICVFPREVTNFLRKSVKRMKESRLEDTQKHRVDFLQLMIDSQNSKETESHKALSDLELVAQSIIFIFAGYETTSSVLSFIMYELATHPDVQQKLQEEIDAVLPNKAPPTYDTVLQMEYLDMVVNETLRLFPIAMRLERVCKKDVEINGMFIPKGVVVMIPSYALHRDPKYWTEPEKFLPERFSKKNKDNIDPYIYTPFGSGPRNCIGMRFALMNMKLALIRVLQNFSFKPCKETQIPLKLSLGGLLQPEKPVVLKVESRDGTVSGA
Protocol: as §1, §2

[5] = target: CYP2C19 (Homo sapiens (Human), UniProt P33261); experiment: as above; assay type: in vitro ADME; settings: human liver microsomes
CYP2C19, sequence (P33261 whole entry): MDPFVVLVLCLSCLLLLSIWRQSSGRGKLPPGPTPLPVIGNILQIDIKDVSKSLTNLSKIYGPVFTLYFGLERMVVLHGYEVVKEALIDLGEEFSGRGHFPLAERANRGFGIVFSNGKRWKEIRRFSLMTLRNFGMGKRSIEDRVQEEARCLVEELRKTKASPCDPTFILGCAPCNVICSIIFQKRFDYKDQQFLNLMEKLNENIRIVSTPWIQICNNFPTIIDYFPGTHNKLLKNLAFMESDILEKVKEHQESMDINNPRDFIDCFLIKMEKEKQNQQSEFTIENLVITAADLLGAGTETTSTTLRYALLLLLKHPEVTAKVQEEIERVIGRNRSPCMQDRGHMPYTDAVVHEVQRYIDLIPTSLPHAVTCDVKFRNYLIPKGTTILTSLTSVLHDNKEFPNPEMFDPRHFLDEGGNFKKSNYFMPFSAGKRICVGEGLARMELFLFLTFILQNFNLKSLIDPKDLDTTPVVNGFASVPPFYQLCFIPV
Protocol: as §1, §2

[6] = Liver-blood ratio, tissue distribution in rats; assay type: in vivo, SD rats; settings: SD, rat, 1 mg/kg, PO 1 mpk
Protocol: Tissue distribution of compounds in SD rats was tested.
In the experiment, candidate compounds were formulated as clear solutions and administered to rats in a single oral dose (PO, 1 mpk). The vehicle for oral administration was a certain proportion of methylcellulose and Tween 80 in water. Whole blood was collected at a certain time and plasma was prepared, and tissues were collected at the corresponding time and prepared into tissue homogenates. Drug concentration was analyzed by LC-MS/MS, and pharmacokinetic parameters were calculated by Phoenix WinNonlin software.

[7] = target: CYP1A2 (Homo sapiens (Human), UniProt P05177); assay type: in vitro ADME; settings: human, microsomes, 10 min
CYP1A2, sequence (P05177 whole entry): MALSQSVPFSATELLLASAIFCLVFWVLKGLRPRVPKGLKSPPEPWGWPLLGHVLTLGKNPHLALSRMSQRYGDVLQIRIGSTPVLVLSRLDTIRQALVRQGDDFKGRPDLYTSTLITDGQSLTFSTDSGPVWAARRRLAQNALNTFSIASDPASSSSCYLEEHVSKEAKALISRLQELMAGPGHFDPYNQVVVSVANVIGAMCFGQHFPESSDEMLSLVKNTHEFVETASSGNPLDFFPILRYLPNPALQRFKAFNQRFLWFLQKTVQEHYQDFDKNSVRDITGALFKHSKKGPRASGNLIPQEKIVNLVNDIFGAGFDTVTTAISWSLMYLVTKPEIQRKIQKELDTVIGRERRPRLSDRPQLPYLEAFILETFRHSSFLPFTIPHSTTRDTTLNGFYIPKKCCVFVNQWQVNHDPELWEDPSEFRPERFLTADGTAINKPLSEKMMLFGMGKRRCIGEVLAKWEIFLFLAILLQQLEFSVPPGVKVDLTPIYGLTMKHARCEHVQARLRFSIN
Protocol: as §1, §2

[8] = brain, read-out: Brain tissue concentration
[9] = brain/plasma, read-out: Brain-blood ratio
[10] = liver, read-out: Liver tissue concentration
[11] = liver/plasma, read-out: Liver-blood ratio
[12] = plasma, read-out: Plasma concentration

Recombinant Human Ketohexokinase (KHK), sequence (P50053 whole entry): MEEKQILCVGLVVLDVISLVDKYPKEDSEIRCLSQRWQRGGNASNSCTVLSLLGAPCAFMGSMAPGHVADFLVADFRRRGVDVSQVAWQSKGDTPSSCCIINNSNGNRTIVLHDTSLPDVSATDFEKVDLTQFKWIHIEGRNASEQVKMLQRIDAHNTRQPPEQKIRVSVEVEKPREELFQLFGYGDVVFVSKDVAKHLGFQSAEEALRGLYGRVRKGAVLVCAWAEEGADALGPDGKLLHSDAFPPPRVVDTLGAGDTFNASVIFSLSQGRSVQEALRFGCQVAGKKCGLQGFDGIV

For `C[C@H]1CCN1c1nc(N2C[C@@H]3[C@@H](CC(=O)O)[C@@H]3C2)c2ccsc2n1` [WX004], the IC50 [1] was 49 nM, the IC50 [2] was > 50 µM and the IC50 [3] was > 50 µM. For the same compound, the IC50 [4] was > 50 µM, the IC50 [5] was > 50 µM and the concentration at 1.5 h [6, 8] was 0.105 µM. The concentration at 2 h [6, 8] was 0.148 µM, the concentration at 6 h [6, 8] was 0.071 µM and the Kp at 1.5 h [6, 9] was 0.022. It also gave a Kp at 2 h [6, 9] of 0.019, a Kp at 6 h [6, 9] of 0.023 and a concentration at 1.5 h [6, 10] of 4.42 µM. For the same compound, the concentration at 2 h [6, 10] was 6.37 µM, the concentration at 6 h [6, 10] was 3.9 µM and the Kp at 1.5 h [6, 11] was 0.943. For the same compound, the Kp at 2 h [6, 11] was 0.821, the Kp at 6 h [6, 11] was 1.22 and the concentration at 1.5 h [6, 12] was 4.67 µM. The concentration at 2 h [6, 12] was 7.75 µM, the concentration at 6 h [6, 12] was 3.67 µM and the IC50 [7] was > 50 µM.
